# Where two headings read alike, the source gives them in different places.
# Assays:
# BTK^C481S = BTK^C481S (Homo sapiens (Human), UniProt Q06187, C481S); assay: BTK^C481S binding affinity (TR-FRET, LanthaScreen); conditions: 5 h incubation
# Summary of the method: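 Tracer-displacement TR-FRET: 5 nM recombinant kinase, 2 nM Eu anti-His antibody and 30 nM Kinase Tracer 236 incubated 5 h with varying inhibitor in Kinase Buffer A. Read at 340 nm excitation, 615/665 nm emission. IC50 from log[inhibitor]–response variable-slope fit.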
# BTK^WT = BTK^WT (Homo sapiens (Human), UniProt Q06187); assay: BTK^WT binding affinity (TR-FRET, LanthaScreen)
# Summary of the method: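 Tracer-displacement TR-FRET: 2.5 nM recombinant BTK, 2 nM Eu anti-His antibody and 15 nM Kinase Tracer 236 in Kinase Buffer A with inhibitor for 5 h. Emission read at 615/665 nm (excitation 340 nm); IC50 from variable-slope fit of log concentration vs response.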
# EGFR = EGFR (Homo sapiens (Human), UniProt P00533); assay: EGFR binding affinity (TR-FRET, LanthaScreen); conditions: 5 h incubation
# Summary of the method: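 IC50 derived by variable-slope fit of TR-FRET signal (ex 340, em 615 and 665 nm) against inhibitor concentration. Mix contained recombinant GST-detected EGFR at 2.5 nM, Eu anti-GST antibody at 2 nM and Kinase Tracer 199 at 3 nM in Kinase Buffer A, 5 h incubation.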
# [1] = test system: OCI-Ly10 human DLBCL cells; assay: OCI-Ly10 anti-proliferative activity (Resazurin, 72 h); format: cell-based; conditions: Homo sapiens, OCI-Ly10, 72 h, read-out: Proliferation OCI-Ly10-IC50
# Summary of the method: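 Resazurin fluorescence (590 nm, 5 h dye incubation) read after 72 h compound exposure at 37 °C; NFκB-dependent cells seeded at 7.5×10^3/well in 2.5% FBS medium. Day 0 signal subtracted, values normalised to DMSO control; IC50 from log[inhibitor] vs response, variable-slope fit.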
# [2] = TR-FRET binding, 5 h incubation, read-out: BTK^WT IC50
# EGFR, sequence (P00533 25-1210): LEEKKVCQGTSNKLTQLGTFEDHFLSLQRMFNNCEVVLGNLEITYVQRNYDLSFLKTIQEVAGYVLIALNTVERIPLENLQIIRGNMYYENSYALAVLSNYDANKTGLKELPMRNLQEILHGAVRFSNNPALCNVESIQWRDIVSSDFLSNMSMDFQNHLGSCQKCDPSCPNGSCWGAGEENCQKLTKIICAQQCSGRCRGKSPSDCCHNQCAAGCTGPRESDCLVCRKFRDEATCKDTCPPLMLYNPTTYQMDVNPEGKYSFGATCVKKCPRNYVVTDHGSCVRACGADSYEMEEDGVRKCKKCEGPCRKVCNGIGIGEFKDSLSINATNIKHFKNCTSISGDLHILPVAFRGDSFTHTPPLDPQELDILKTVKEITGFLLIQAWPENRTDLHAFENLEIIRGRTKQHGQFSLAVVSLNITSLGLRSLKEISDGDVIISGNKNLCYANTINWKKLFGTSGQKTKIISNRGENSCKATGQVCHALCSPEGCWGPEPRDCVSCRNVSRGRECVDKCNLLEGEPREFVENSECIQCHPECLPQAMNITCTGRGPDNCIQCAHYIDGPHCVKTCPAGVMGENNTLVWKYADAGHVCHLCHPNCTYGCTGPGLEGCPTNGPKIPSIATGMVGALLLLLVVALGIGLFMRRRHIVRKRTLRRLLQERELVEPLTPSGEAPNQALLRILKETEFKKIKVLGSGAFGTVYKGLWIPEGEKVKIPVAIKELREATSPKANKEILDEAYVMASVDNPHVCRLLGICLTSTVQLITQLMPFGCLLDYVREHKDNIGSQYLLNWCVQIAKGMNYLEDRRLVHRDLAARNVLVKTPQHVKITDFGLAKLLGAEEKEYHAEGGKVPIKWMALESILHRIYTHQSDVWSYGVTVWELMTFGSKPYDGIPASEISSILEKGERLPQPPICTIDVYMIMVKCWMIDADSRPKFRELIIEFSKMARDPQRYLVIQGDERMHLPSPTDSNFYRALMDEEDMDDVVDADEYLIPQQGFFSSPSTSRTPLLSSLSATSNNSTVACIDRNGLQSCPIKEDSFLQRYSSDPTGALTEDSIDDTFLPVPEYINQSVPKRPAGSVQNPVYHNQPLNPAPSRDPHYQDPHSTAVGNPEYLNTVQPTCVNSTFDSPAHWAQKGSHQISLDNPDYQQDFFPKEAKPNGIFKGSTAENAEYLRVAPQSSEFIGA
# BTK^C481S, sequence (Q06187 whole entry C481S): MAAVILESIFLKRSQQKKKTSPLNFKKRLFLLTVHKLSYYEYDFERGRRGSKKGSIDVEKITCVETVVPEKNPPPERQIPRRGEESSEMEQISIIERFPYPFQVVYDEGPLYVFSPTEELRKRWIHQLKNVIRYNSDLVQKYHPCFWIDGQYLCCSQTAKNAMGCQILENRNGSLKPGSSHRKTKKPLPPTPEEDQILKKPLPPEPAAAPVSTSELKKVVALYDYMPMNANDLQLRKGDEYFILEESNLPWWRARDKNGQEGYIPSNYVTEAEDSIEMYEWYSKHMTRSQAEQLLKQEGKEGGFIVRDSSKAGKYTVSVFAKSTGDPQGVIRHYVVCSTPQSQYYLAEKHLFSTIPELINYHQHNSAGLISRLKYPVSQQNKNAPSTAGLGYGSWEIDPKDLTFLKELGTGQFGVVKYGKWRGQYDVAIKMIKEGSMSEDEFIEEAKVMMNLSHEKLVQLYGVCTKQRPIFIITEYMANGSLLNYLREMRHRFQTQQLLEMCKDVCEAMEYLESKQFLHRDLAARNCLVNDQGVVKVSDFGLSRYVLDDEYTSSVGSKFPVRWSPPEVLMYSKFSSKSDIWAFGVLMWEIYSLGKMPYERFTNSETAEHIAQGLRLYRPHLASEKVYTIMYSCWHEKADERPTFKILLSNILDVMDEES
# BTK^WT, sequence (Q06187 whole entry): as the sequence (Q06187 whole entry C481S) above, with S481C counted along it
IC50 (BTK^C481S) [nM],IC50 (BTK^WT; [2]) [nM],IC50 (EGFR) [nM],IC50 [1] [nM],"IC50 (BTK^WT; Table 6, numeric values, read-out: BTK Binding IC50) [nM]",SMILES
≤ 10,≤ 10,1000 to 10000,100 to 1000,–,"COc1ccc(C)cc1C(=O)NCc1ccc(-c2nn(C3CCCC3)c3ncnc(N)c23)cc1F [Example 65, N-[[4-(4-amino-1-cyclopentyl-pyrazolo[3,4-d]pyrimidin-3-yl)-2-fluoro-phenyl]methyl]-2-methoxy-5-methyl-benzamide]"
≤ 10,≤ 10,100 to 1000,10 to 100,4,"COc1ccccc1C(=O)NCc1ccc(-c2nn(C3CCCC3)c3ncnc(N)c23)cc1F [Example 66, N-[[4-(4-amino-1-cyclopentyl-pyrazolo[3,4-d]pyrimidin-3-yl)-2-fluoro-phenyl]methyl]-2-methoxy-benzamide]"
100 to 1000,100 to 1000,1000 to 10000,1000 to 10000,–,"Nc1ncnc2c1c(-c1ccc(CNC(=O)c3nccc4ccccc34)cc1)nn2C1CCCC1 [Example 69, N-[[4-(4-amino-1-cyclopentyl-pyrazolo[3,4-d]pyrimidin-3-yl)phenyl]methyl]isoquinoline-1-carboxamide]"
≤ 10,≤ 10,100 to 1000,100 to 1000,–,"Nc1ncnc2c1c(-c1ccc(CNC(=O)c3cccc4cccnc34)cc1)nn2C1CCCC1 [Example 70, N-[[4-(4-amino-1-cyclopentyl-pyrazolo[3,4-d]pyrimidin-3-yl)phenyl]methyl]quinoline-8-carboxamide]"
≤ 10,≤ 10,> 10000,10 to 100,–,"COc1ccccc1C(=O)NCc1ccc(-c2nn(C3CCCC3)c3ncnc(N)c23)c(OC)c1 [Example 77, N-[[4-(4-Amino-1-cyclopentyl-pyrazolo[3,4-d]pyrimidin-3-yl)-3-methoxy-phenyl]methyl]-2-methoxy-benzamide]"
10 to 100,10 to 100,> 10000,1000 to 10000,–,"COc1ccccc1C(=O)NCc1ccc(-c2nn(CC(F)(F)F)c3ncnc(N)c23)cc1 [Example 90, N-[[4-[4-Amino-1-(2,2,2-trifluoroethyl)pyrazolo[3,4-d]pyrimidin-3-yl]phenyl]methyl]-2-methoxy-benzamide]"

# Continued, molecule first:
SMILES,IC50 (BTK^C481S) [nM],IC50 (BTK^WT; [2]) [nM],IC50 (EGFR) [nM],IC50 [1] [nM],"IC50 (BTK^WT; Table 6, numeric values, read-out: BTK Binding IC50) [nM]"
"COc1ccc2ccccc2c1C(=O)NCc1ccc(-c2nn(C3CCCC3)c3ncnc(N)c23)cc1 [Example 68, N-[[4-(4-amino-1-cyclopentyl-pyrazolo[3,4-d]pyrimidin-3-yl)phenyl]methyl]-2-methoxy-naphthalene-1-carboxamide]",100 to 1000,100 to 1000,1000 to 10000,1000 to 10000,–
"COc1ccccc1C(=O)NCc1ccc(-c2nn(CC(C)O)c3ncnc(N)c23)cc1 (stereo not drawn) [Example 74, N-[[4-[4-amino-1-(2-hydroxypropyl)pyrazolo[3,4-d]pyrimidin-3-yl]phenyl]methyl]-2-methoxy-benzamide]",10 to 100,10 to 100,1000 to 10000,100 to 1000,–
"COc1ccccc1C(=O)NCc1ccc(-c2nn(CC(C)C)c3ncnc(N)c23)cc1 [Example 76, N-[[4-(4-amino-1-isobutyl-pyrazolo[3,4-d]pyrimidin-3-yl)phenyl]methyl]-2-methoxy-benzamide]",≤ 10,≤ 10,100 to 1000,100 to 1000,–
"COc1ccccc1C(=O)NCc1ccc(-c2nn(C3CCCC3)c3ncnc(N)c23)cc1C [Example 89, N-[[4-(4-Amino-1-cyclopentyl-pyrazolo[3,4-d]pyrimidin-3-yl)-2-methyl-phenyl]methyl]-2-methoxy-benzamide]",≤ 10,≤ 10,100 to 1000,100 to 1000,–
"COc1ccc(F)cc1C(=O)NCc1ccc(-c2nn(CC(F)(F)F)c3ncnc(N)c23)cc1 [Example 93, N-[[4-[4-Amino-1-(2,2,2-trifluoroethyl)pyrazolo[3,4-d]pyrimidin-3-yl]phenyl]methyl]-5-fluoro-2-methoxy-benzamide]",≤ 10,≤ 10,> 10000,100 to 1000,–

# Reference: US10399989B2, “Pyrazolopyrimidine derivatives as BTK inhibitors for the treatment of cancer” (Loxo Oncology, Inc., priority 2016, dated 2019)
